Experimental data taken from BindingDB's records for doi:10.7270/Q2NS0SCW (Burnham Center For Chemical Genomics, 2010).

Tests used:
[1] = biological target: Alkaline phosphatase, placental type (Homo sapiens, UniProt P05187); assay: inhibition of placental alkaline phosphatase – biochemical, uHTS hits, selectivity assay for mouse IAP inhibitor project, dose response (AID 488879)
[2] = as above

Chain of Alkaline phosphatase, placental type (P05187 whole entry, looked up): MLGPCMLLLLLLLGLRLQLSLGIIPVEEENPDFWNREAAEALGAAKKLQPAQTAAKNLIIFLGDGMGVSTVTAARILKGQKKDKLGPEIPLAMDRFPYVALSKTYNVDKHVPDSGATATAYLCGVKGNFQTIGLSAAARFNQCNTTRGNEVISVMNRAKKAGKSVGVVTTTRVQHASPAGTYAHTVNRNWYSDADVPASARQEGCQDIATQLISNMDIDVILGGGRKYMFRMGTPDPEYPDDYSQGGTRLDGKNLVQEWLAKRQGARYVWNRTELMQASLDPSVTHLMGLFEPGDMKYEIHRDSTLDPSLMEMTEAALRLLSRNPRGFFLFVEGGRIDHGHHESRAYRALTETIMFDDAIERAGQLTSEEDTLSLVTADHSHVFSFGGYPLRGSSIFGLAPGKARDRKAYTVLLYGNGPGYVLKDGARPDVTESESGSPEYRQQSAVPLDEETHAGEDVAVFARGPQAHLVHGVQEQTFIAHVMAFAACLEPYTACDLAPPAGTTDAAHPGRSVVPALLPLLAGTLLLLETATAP

Row | Compound | IC50 [1] [µM] | IC50 [2] [µM]
1 | Cc1ccc(Cl)c2c1NC(=O)/C2=C1/NC(=S)NC1=O | > 100 | 
2 | Nc1nnc(CC(=O)N/N=C/C2C=C([N+](=O)[O-])C=C(Br)C2=O)s1 (stereo not given) [2-(5-azanyl-1,3,4-thiadiazol-2-yl)-N'-[(E)-(5-bromanyl-3-nitro-6-oxidanylidene-cyclohexa-2,4-dien-1-ylidene)methyl]ethanehydrazide] | > 100 | 
3 | NS(=O)(=O)c1cc(C(=O)NNC2=c3ccccc3=NC2=O)ccc1Cl [2-chloro-5-[[(2-oxoindol-3-yl)amino]carbamoyl]benzenesulfonamide] | > 100 | 
4 | COc1cc(C=Nn2c(O)csc2=S)ccc1O [3-[[(E)-(3-methoxy-4-oxidanylidene-cyclohexa-2,5-dien-1-ylidene)methyl]amino]-2-sulfanylidene-1,3-thiazolidin-4-one] | > 100 | 
5 | Oc1ccc(C=Nn2c(O)csc2=S)c(O)c1O [3-[[(E)-[2,3-bis(oxidanyl)-4-oxidanylidene-cyclohexa-2,5-dien-1-ylidene]methyl]amino]-2-sulfanylidene-1,3-thiazolidin-4-one] | > 100 | 
6 | CC1NON=C1C(=O)NN=CC1=CC(=O)C(=O)C=C1 (stereo not given) [4-Methyl-furazan-3-carboxylic acid (3,4-dihydroxy-benzylidene)-hydrazide] | 18 | 
7 | Cc1ccc(/C=C2\SC(=S)N(/N=C/C3C=C([N+](=O)[O-])C=CC3=O)C2=O)o1 (stereo not given) [(5Z)-5-[(5-methylfuran-2-yl)methylidene]-3-[[(E)-(3-nitro-6-oxocyclohexa-2,4-dien-1-ylidene)methyl]amino]-2-sulfanylidene-1,3-thiazolidin-4-one] | > 100 | 
8 | C#CCOCCOCCOCCNc1nc(N2CCN(C(=O)CCCCCCCCCCNC(=O)[C@H]([C@@H](C)CC)n3cc(CCCCN=C(N)N)nn3)CC2)nc(N2CCN(C(=O)CCCCCCCCCCNC(=O)[C@@H]([C@H](C)O)n3cc(C)nn3)CC2)n1 [GT-RI] | > 100 | 
9 | O=C1Nc2ccccc2/C1=C1/SC(=S)N(NC(=O)c2ccccc2)C1=O [N-[(5Z)-4-oxo-5-(2-oxo-1H-indol-3-ylidene)-2-sulfanylidene-3-thiazolidinyl]benzamide] |  | 5.31
10 | O=c1cc(O)cc2oc(-c3ccc(O)c(O)c3)c(O[C@@H]3O[C@H](CO)[C@@H](O)[C@H](O)[C@H]3O)c(O)c1-2 [Quercetin 3-O-beta-D-glucoside] | > 100 | 
11 | COc1cc(C=CC(=O)CC(=O)C=Cc2ccc(O)cc2)ccc1O [demethoxycurcumin] | > 100 | 

Results, then the compound that gave them:

Row | IC50 [1] [µM] | IC50 [2] [µM] | Compound
12 | > 100 |  | O=C1C=CC(C=NNC(=S)Nc2ccccc2[N+](=O)[O-])C=C1O (stereo not given) [MLS000417596]
13 | > 100 |  | C#CCOCCOCCOCCNc1nc(N2CCN(C(=O)CCCCCCCCCCNC(=O)[C@@H](CCSC)n3cc(CCO)nn3)CC2)nc(N2CCN(C(=O)CCCCCCCCCCNC(=O)[C@H]([C@@H](C)CC)n3cc(CCCCCN)nn3)CC2)n1 [MLS002153719]
14 | 21.8 |  | NS(=O)(=O)c1ccc(N=Nc2c(=O)[nH]n3c(=O)c4c([nH]c23)CCCC4)cc1 [SMR000231775]
15 | > 100 |  | O=C(Nn1c(O)csc1=S)C(=O)Nn1c(O)csc1=S [SMR000349781]
